Laboratory results: patent US12503471B2, “Triazatricycle compounds for the treatment of autoimmune disease” (Hoffmann-La Roche Inc., priority 2019, dated 2025)

The compounds below were run against T1, human TLR7 (Homo sapiens, UniProt Q9NYK1) (assay: HEK293-Blue-hTLR-7 cells assay). Settings: HEK293-Blue-hTLR7 cells, R848 stimulation, 20 hrs, SEAP reporter; read-out: HEK/hTLR7 IC50.
T1 construct: host or cells: HEK293 (HEK-Blue hTLR7)
T1 sequence (Q9NYK1 27-1049): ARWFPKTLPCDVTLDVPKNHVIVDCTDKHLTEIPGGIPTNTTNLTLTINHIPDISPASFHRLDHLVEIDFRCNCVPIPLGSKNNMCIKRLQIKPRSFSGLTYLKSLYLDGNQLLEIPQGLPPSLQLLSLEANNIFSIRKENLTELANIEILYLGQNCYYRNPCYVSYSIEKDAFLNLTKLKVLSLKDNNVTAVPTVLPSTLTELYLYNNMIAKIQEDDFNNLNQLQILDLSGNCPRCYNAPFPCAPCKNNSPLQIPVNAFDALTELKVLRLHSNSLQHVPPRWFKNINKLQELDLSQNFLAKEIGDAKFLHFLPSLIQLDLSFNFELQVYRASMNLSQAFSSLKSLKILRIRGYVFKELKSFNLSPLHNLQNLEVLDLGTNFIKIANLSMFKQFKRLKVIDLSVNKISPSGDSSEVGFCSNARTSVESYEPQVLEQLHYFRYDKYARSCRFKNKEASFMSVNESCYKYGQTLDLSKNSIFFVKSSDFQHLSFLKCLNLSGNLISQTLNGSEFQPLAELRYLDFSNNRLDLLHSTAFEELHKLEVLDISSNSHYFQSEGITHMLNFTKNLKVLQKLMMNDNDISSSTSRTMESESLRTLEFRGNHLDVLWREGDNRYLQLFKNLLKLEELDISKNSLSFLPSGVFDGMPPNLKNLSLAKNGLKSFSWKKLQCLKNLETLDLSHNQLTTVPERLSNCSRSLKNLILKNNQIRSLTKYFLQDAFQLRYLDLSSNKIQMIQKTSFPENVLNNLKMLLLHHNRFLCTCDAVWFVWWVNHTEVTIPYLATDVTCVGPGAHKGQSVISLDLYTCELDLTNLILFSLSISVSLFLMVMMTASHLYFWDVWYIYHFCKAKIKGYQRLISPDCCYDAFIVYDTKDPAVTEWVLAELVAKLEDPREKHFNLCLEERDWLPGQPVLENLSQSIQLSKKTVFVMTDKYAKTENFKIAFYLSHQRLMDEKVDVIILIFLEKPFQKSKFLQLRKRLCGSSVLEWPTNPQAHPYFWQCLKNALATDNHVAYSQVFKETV
Type: cell-based
Description: HEK293-Blue-hTLR-7 Cells Assay:
A stable HEK293-Blue-hTLR-7 cell line was purchased from InvivoGen (Cat. #: hkb-htlr7, San Diego, Calif., USA). These cells were originally designed for studying the stimulation of human TLR7 by monitoring the activation of NF-κB. A SEAP (secreted embryonic alkaline phosphatase) reporter gene was placed under the control of the IFN-β minimal promoter fused to five NF-κB and AP-1-binding sites. The SEAP was induced by activating NF-κB and AP-1 via stimulating HEK-Blue hTLR7 cells with TLR7 ligands. Therefore the reporter expression was declined by TLR7 antagonist under the stimulation of a ligand, such as R848 (Resiquimod), for incubation of 20 hrs. The cell culture supernatant SEAP reporter activity was determined using QUANTI-Blue™ kit (Cat. #: rep-qbl, Invivogen, San Diego, Ca, USA) at a wavelength of 640 nm, a detection medium that turns purple or blue in the presence of alkaline phosphatase.
HEK293-Blue-hTLR7 cells were incubated at a density of 250,000˜450,000 cells/mL in a volume of 170 μL in a 96-well plate in Dulbecco's Modified Eagle's medium (DMEM) containing 4.5 g/L glucose, 50 U/mL penicillin, […], […], 2 mM L-glutamine, 10% (v/v) heat-inactivated fetal bovine serum with addition of 20 μL test compound in a serial dilution in the presence of final DMSO at 1% and 10 μL of 20 uM R848 in above DMEM, perform incubation under 37° C. in a CO2 incubator for 20 hrs. Then 20 μL of the supernatant from each well was incubated with 180 μL Quanti-blue substrate solution at 37° C. for 2 hrs and the absorbance was read at 620-655 nm using a spectrophotometer. The signaling pathway that TLR7 activation leads to downstream NF-κB activation has been widely accepted, and therefore similar reporter assay was modified for evaluating TLR7 antagonist.

Row | SMILES | IC50 [nM]
1 | C[C@@H]1CN(c2ccc(C#N)c3ncccc23)C[C@@H]2c3ccc(N4CC5CNCC(C4)O5)nc3CN12 [Example 6, 5-[(2S,6R)-6-methyl-11-(9-oxa-3,7-diazabicyclo[3.3.1]nonan-3-yl)-4,7,10-triazatricyclo[7.4.0.02,7]trideca-1(9),10,12-trien-4-yl]quinoline-8-carbonitrile] | 4.9
2 | [2H]c1ccc2c(N3C[C@@H](C)N4Cc5nc(N6CC[C@@](C)(N)C6)ccc5[C@H]4C3)ccc(C#N)c2n1 [Example 7, 5-[(2S,6R)-11-[(3R)-3-amino-3-methyl-pyrrolidin-1-yl]-6-methyl-4,7,10-triazatricyclo[7.4.0.02,7]trideca-1(9),10,12-trien-4-yl]-2-deuterio-quinoline-8-carbonitrile] | 2.8

Now those with a lower IC50, led by results:

Row | IC50 [nM] | SMILES
3 | 1 | [2H]c1ccc2c(N3C[C@@H](C)N4Cc5nc(OC6CCNCC6)ccc5[C@H]4C3)ccc(C#N)c2n1 [Example 24, 2-Deuterio-5-[(2S,6R)-6-methyl-11-(4-piperidyloxy)-4,7,10-triazatricyclo[7.4.0.02,7]trideca-1(9),10,12-trien-4-yl]quinoline-8-carbonitrile]
4 | 1.1 | [2H]c1ccc2c(N3C[C@@H](C)N4Cc5nc(N6CCC(C)(N)CC6)ccc5[C@H]4C3)ccc(C#N)c2n1 [Example 19, 5-[(2S,6R)-11-(4-amino-4-methyl-1-piperidyl)-6-methyl-4,7,10-triazatricyclo[7.4.0.02,7]trideca-1(9),10,12-trien-4-yl]-2-deuterio-quinoline-8-carbonitrile]
5 | 1.7 | [2H]c1ccc2c(N3C[C@@H](C)N4Cc5nc(C6CCNCC6)ccc5[C@H]4C3)ccc(C#N)c2n1 [Example 23, 2-Deuterio-5-[(2S,6R)-6-methyl-11-(4-piperidyl)-4,7,10-triazatricyclo[7.4.0.02,7]trideca-1(9),10,12-trien-4-yl]quinoline-8-carbonitrile]
